Measured values: US9073821B2, “Hydroxamic acid derivative” (priority 2010, dated 2015)

biological target: Pseudomonas aeruginosa LpxC enzyme (Pseudomonas aeruginosa (strain ATCC 15692 / DSM 22644 / CIP 104116 / JCM 14847 / LMG 12228 / 1C / PRS 101 / PAO1), UniProt P47205); assay: biochemical; type: biochemical; conditions: class symbols A/B/C by IC50; Table 3; read-out: Enzyme inhibitory activity (inhibitory activity on Pseudomonas aeruginosa LpxC enzyme)

`CCOC1CN(Cc2ccc(C#Cc3ccc(C(=O)N(C)C(C(=O)NC)C(=O)NO)cc3)c(F)c2)C1` (stereo not drawn) [Compound 564, 2-[{[4-({4-[(3-ethoxyazetidin-1-yl)methyl]-2-fluorophenyl}ethynyl)phenyl]carbonyl}(methyl)amino]-N-hydroxy-N′-methylpropanediamide] and `CCOC1CN(Cc2ccc(C#Cc3ccc(C(=O)N(C)C(C(=O)NC)C(=O)NO)cc3)cc2Cl)C1` (stereo not drawn) [Compound 579, 2-[{[4-({3-chloro-4-[(3-ethoxyazetidin-1-yl)methyl]phenyl}ethynyl)phenyl]carbonyl}(methyl)amino]-N-hydroxy-N′-methylpropanediamide] cannot be ordered by IC50: < 0.01 µM for the first, < 0.01 µM for the second.

`CCO/N=C/c1cc(C#Cc2ccc(C(=O)N(C)C(C(=O)NC)C(=O)NO)cc2)co1` (stereo not drawn) [Compound 506, 2-[{[4-({5-[(E)-(ethoxyimino)methyl]furan-3-yl}ethynyl)phenyl]carbonyl}(methyl)amino]-N-hydroxy-N′-methylpropanediamide] and `CCOCc1cc(C#Cc2ccc(C(=O)N(C)[C@@](C)(C(=O)NC)C(=O)NO)cc2)co1` [Compound 612, (2S)-2-[(4-{[5-(ethoxymethyl)furan-3-yl]ethynyl}benzoyl)(methyl)amino]-N-hydroxy-N′,2-dimethylpropanediamide] cannot be ordered by IC50: < 0.01 µM for the first, < 0.01 µM for the second.

First: CNC(=O)C(C(=O)NO)N(C)C(=O)c1ccc(-c2ccc(CCCN3CCCOCC3)cc2)cc1 (stereo not drawn) [Compound 502, N-hydroxy-N′-methyl-2-[methyl({4′-[3-(1,4-oxazepan-4-yl)propyl]biphenyl-4-yl}carbonyl)amino]propanediamide]
Second: CNC(=O)C(C(=O)NO)N(C)C(=O)c1ccc(C#CC#Cc2cnn(C)c2)cc1 (stereo not drawn) [Compound 511, N-hydroxy-N′-methyl-2-[methyl({4-[4-(1-methyl-1H-pyrazol-4-yl)buta-1,3-diyn-1-yl]phenyl}carbonyl)amino]propanediamide]
The IC50 of the first is higher: 0.01 to 0.1 µM for the first, < 0.01 µM for the second.

`CCOC1CN(Cc2cc(C#Cc3ccc(C(=O)N(C)[C@@](C)(C(=O)NC)C(=O)NO)cc3)co2)C1` [Compound 584, (2S)-2-[{[4-({5-[(3-ethoxyazetidin-1-yl)methyl]furan-3-yl}ethynyl)phenyl]carbonyl}(methyl)amino]-N-hydroxy-N′,2-dimethylpropanediamide] was tested, and the IC50 was < 0.01 µM.

same assay, conditions: inhibitory activity on Pseudomonas aeruginosa LpxC enzyme, class symbols A/B/C; read-out: Enzyme inhibitory activity

`CNC(=O)C(C(=O)NO)N(C)C(=O)c1ccc(-c2cc3ccccc3o2)cc1` (stereo not drawn) [Compound 312, 2-[{[4-(1-benzofuran-2-yl)phenyl]carbonyl}(methyl)amino]-N-hydroxy-N′-methylpropanediamide] and `CNC(=O)C(C(=O)NO)N(C)C(=O)c1ccc(-c2ccc3c(ccn3C)c2)cc1` (stereo not drawn) [Compound 19, N-hydroxy-N′-methyl-2-{methyl[4-(1-methyl-1H-indol-5-yl)benzoyl]amino}propanediamide] cannot be ordered by IC50: < 0.01 µM for the first, < 0.01 µM for the second.

`CNC(=O)C(C(=O)NO)N(C)C(=O)c1ccc(-c2ccc(CCOC)cc2)cc1` (stereo not drawn) [Compound 246, N-hydroxy-2-[{[4′-(2-methoxyethyl)biphenyl-4-yl]carbonyl}(methyl)amino]-N′-methylpropanediamide] and `CCCOc1ccc(-c2ccc(C(=O)N(C)C(C(=O)NC)C(=O)NO)cc2)cc1` (stereo not drawn) [Compound 212, N-hydroxy-N′-methyl-2-{methyl[(4′-propoxybiphenyl-4-yl)carbonyl]amino}propanediamide] cannot be ordered by IC50: < 0.01 µM for the first, < 0.01 µM for the second.

Compared with `CNC(=O)C(C(=O)NO)N(C)C(=O)c1ccc(-c2ccc(N(C)C(=O)OC(C)(C)C)c(C)c2)cc1` (stereo not drawn) [Compound 44, tert-butyl(4′-{[1-(hydroxyamino)-3-(methylamino)-1,3-dioxopropan-2-yl](methyl)carbamoyl}-3-methylbiphenyl-4-yl)methylcarbamate], `CNC(=O)C(C(=O)NO)N(C)C(=O)c1ccc(-c2ccc(C)c(F)c2)cc1` (stereo not drawn) [Compound 28, 2-{[(3′-fluoro-4′-methylbiphenyl-4-yl)carbonyl](methyl)amino}-N-hydroxy-N′-methylpropanediamide] is lower in IC50: 0.01 to 0.1 µM for the first, < 0.01 µM for the second. The second is the more potent here.

`CNC(=O)C(C(=O)NO)N(C)C(=O)c1ccc(-c2ccc(OCCN(C)c3ccccc3)cc2)cc1` (stereo not drawn) [Compound 89, N-hydroxy-N′-methyl-2-{methyl[(4′-{2-[methyl(phenyl)amino]ethoxy}biphenyl-4-yl)carbonyl]amino}propanediamide] and `CNC(=O)C(C(=O)NO)N(C)C(=O)c1ccc(-c2ccc(OCCCCOC)cc2)cc1` (stereo not drawn) [Compound 215, N-hydroxy-2-[{[4′-(4-methoxybutoxy)biphenyl-4-yl]carbonyl}(methyl)amino]-N′-methylpropanediamide] cannot be ordered by IC50: < 0.01 µM for the first, < 0.01 µM for the second.

`CNC(=O)C(C(=O)NO)N(C)C(=O)c1ccc(-c2ccccc2)nc1` (stereo not drawn) [Compound 190, N-hydroxy-N′-methyl-2-{methyl[(6-phenylpyridin-3-yl)carbonyl]amino}propanediamide] and `CNC(=O)C(C(=O)NO)N(C)C(=O)c1ccc(-c2ncccc2F)cc1` (stereo not drawn) [Compound 107, 2-{[4-(3-fluoropyridin-2-yl)benzoyl](methyl)amino}-N-hydroxy-N′-methylpropanediamide] cannot be ordered by IC50: > 0.1 µM for the first, > 0.1 µM for the second.

First: CNC(=O)C(C(=O)NO)N(C)C(=O)c1ccc(-c2ccc(CCCO)cc2)cc1O (stereo not drawn) [Compound 185, N-hydroxy-2-[{[3-hydroxy-4′-(3-hydroxypropyl)biphenyl-4-yl]carbonyl}(methyl)amino]-N′-methylpropanediamide]
Second: CNC(=O)C(C(=O)NO)N(C)C(=O)c1ccc(-c2ccc(OC)c(OC)c2)cc1 (stereo not drawn) [Compound 55, 2-{[(3′,4′-dimethoxybiphenyl-4-yl)carbonyl](methyl)amino}-N-hydroxy-N′-methylpropanediamide]
The IC50 of the first is higher: > 0.1 µM for the first, 0.01 to 0.1 µM for the second.

`CN(C)C(=O)CNC(=O)C(NC(=O)c1ccc(-c2ccc(OCCO)cc2)cc1)C(=O)NO` (stereo not drawn) [Compound 144, N-[2-(dimethylamino)-2-oxoethyl]-N′-hydroxy-2-({[4′-(2-hydroxyethoxy)biphenyl-4-yl]carbonyl}amino)propanediamide] and `Cc1nnc(CNC(=O)C(NC(=O)c2ccc(-c3ccc(OCCO)cc3)cc2)C(=O)NO)s1` (stereo not drawn) [Compound 155, N-hydroxy-2-({[4′-(2-hydroxyethoxy)biphenyl-4-yl]carbonyl}amino)-N′-[(5-methyl-1,3,4-thiadiazol-2-yl)methyl]propanediamide] cannot be ordered by IC50: < 0.01 µM for the first, < 0.01 µM for the second.

`CNC(=O)C(C(=O)NO)N(C)C(=O)c1ccc(-c2ccc(OCCCNC3CC3)cc2)cc1` (stereo not drawn) [Compound 217, 2-[({4′-[3-(cyclopropylamino)propoxy]biphenyl-4-yl}carbonyl)(methyl)amino]-N-hydroxy-N′-methylpropanediamide] and `CNC(=O)C(C(=O)NO)N(C)C(=O)c1ccc(-c2ccc(C3(C)OCCO3)cc2)cc1` (stereo not drawn) [Compound 254, N-hydroxy-N′-methyl-2-(methyl {[4′-(2-methyl-1,3-dioxolan-2-yl)biphenyl-4-yl]carbonyl}amino)propanediamide] fall in the same range of IC50: 0.01 to 0.1 µM for the first, 0.01 to 0.1 µM for the second.

`CNC(=O)C(C(=O)NO)N(C)C(=O)c1ccc(-c2ccc(OCc3ccc(N4CCN(C)CC4)cc3)cc2)cc1` (stereo not drawn) [Compound 90, N-hydroxy-N′-methyl-2-{methyl[(4′-{[4-(4-methylpiperazin-1-yl)benzyl]oxy}biphenyl-4-yl)carbonyl]amino}propanediamide] and `CNC(=O)C(C(=O)NO)N(C)C(=O)c1ccc(C#CC#Cc2ccc(CN3CCN(C)CC3)cc2)cc1` (stereo not drawn) [Compound 492, N-hydroxy-N′-methyl-2-(methyl {[4-(4-{4-[(4-methylpiperazin-1-yl)methyl]phenyl}buta-1,3-diyn-1-yl)phenyl]carbonyl}amino)propanediamide] cannot be ordered by IC50: < 0.01 µM for the first, < 0.01 µM for the second.

`CNC(=O)C(C(=O)NO)N(C)C(=O)c1ccc(C#Cc2ccc(CCN3CCOCC3)cc2)cc1` (stereo not drawn) [Compound 206, N-hydroxy-N′-methyl-2-{methyl[4-({4-[2-(morpholin-4-yl)ethyl]phenyl}ethynyl)benzoyl]amino}propanediamide] and `CNC(=O)C(C(=O)NO)N(C)C(=O)c1ccc(C#Cc2coc(CN3CCOCC3)c2)cc1` (stereo not drawn) [Compound 483, N-hydroxy-N′-methyl-2-{methyl[(4-{[5-(morpholin-4-ylmethyl)furan-3-yl]ethynyl}phenyl)carbonyl]amino}propanediamide] cannot be ordered by IC50: < 0.01 µM for the first, < 0.01 µM for the second.

`CNC(=O)C(C(=O)NO)N(C)C(=O)c1ccc(C#Cc2ccc(CN3CCC(OC)CC3)cc2)cc1` (stereo not drawn) [Compound 383, N-hydroxy-2-[{[4-({4-[(4-methoxypiperidin-1-yl)methyl]phenyl}ethynyl)phenyl]carbonyl}(methyl)amino]-N′-methylpropanediamide] and `CNC(=O)C(C(=O)NO)N(C)C(=O)c1ccc(C#Cc2ccc(CNCC(C)(C)C)cc2)cc1` (stereo not drawn) [Compound 329, 2-[({4-[(4-{[(2,2-dimethylpropyl)amino]methyl}phenyl)ethynyl]phenyl}carbonyl)(methyl)amino]-N-hydroxy-N′-methylpropanediamide] cannot be ordered by IC50: < 0.01 µM for the first, < 0.01 µM for the second.

`CNC(=O)C(C)(C(=O)NO)N(C)C(=O)c1ccc(-c2ccc(OC)cc2)cc1` (stereo not drawn) [Compound 348, N-hydroxy-2-{[(4′-methoxybiphenyl-4-yl)carbonyl](methyl)amino}-N′,2-dimethylpropanediamide] and `CNC(=O)C(C)(C(=O)NO)N(C)C(=O)c1ccc(-c2ccccc2)cc1` (stereo not drawn) [Compound 324, 2-[(Biphenyl-4-ylcarbonyl)(methyl)amino]-N-hydroxy-N′,2-dimethylpropanediamide] cannot be ordered by IC50: < 0.01 µM for the first, < 0.01 µM for the second.

Going from `O=C(NC(C(=O)NO)C(=O)NCC1CN(Cc2ccccc2)CCO1)c1ccc(-c2ccc(OCCO)cc2)cc1` (stereo not drawn) [Compound 160, N-[(4-benzylmorpholin-2-yl)methyl]-N′-hydroxy-2-({[4′-(2-hydroxyethoxy)biphenyl-4-yl]carbonyl}amino)propanediamide] to `CN(C(=O)c1ccc(-c2ccccc2)cc1)C(C(=O)NO)C(=O)NCc1ccncc1` (stereo not drawn) [Compound 178, 2-[(biphenyl-4-ylcarbonyl)(methyl)amino]-N-hydroxy-N′-(pyridin-4-ylmethyl)propanediamide], the IC50 rises from < 0.01 µM to > 0.1 µM.
